Reference: patent US8192962B2, “Processes for detecting toxic substances” (Daikin Industries, Ltd., priority 2001, dated 2012)

Tested on: Stress protein genes
Assay: DNA chip mRNA expression in yeast, stress protein genes (Table 6)
Assay type: cell-based, Saccharomyces cerevisiae S288C
How it was run: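 In this screen, yeast in logarithmic growth are challenged for two hours with a toxic substance at a non-lethal inhibitory concentration. Their mRNA, converted to Cy3- or Cy5-labeled cDNA, hybridizes at 65° C. to a chip spanning every yeast gene, and expression is expressed as a ratio to untreated cells.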

Measured: The level of expressed mRNA in the presence of chemical substance/The level of expressed mRNA in the absence of chemical substance

C[S+](C)[O-] [(15), dimethylsulfoxide]
2.3: yeast gene YJR045C
1.1: yeast gene YNR076W | yeast gene YOL161C | yeast gene YPL106C
1.5: yeast gene YGL181W | yeast gene YLL060C | yeast gene YPL223C
6.1: yeast gene YDR077W
1.6: yeast gene YBR169C | yeast gene YHR104W | yeast gene YJR090C
0.9: yeast gene YBR044C | yeast gene YDL022W | yeast gene YGL073W | yeast gene YIL011W | yeast gene YLL026W | yeast gene YLR006C | yeast gene YML070W | yeast gene YOR008C
1.4: yeast gene YFL020C | yeast gene YFR052W | yeast gene YOR027W | yeast gene YPL194W
2.5: yeast gene YDR155C | yeast gene YMR173W
2.2: yeast gene YDR098C
1.0: yeast gene YBR126C | yeast gene YCR083W | yeast gene YDL025C | yeast gene YER042W | yeast gene YHL046C | yeast gene YIL033C | yeast gene YIR037W | yeast gene YJL165C | yeast gene YKL210W | yeast gene YML007W | yeast gene YMR021C | yeast gene YOL064C | yeast gene YPL059W
0.4: yeast gene YEL039C
0.7: yeast gene YAL015C | yeast gene YGL115W | yeast gene YGR088W | yeast gene YNL064C | yeast gene YNL160W | yeast gene YPL140C
6.3: yeast gene YFL014W
2.0: yeast gene YDR519W
2.7: yeast gene YPR005C
1.3: yeast gene YDR513W | yeast gene YKL161C | yeast gene YLL024C | yeast gene YMR186W
1.7: yeast gene YDR293C | yeast gene YER057C | yeast gene YJL158C
4.9: yeast gene YBR072W
3.9: yeast gene YLR109W
1.2: yeast gene YHR057C | yeast gene YIR038C | yeast gene YJL128C | yeast gene YKL164C | yeast gene YPL240C
0.8: yeast gene YDR033W | yeast gene YDR436W | yeast gene YEL030W | yeast gene YER125W | yeast gene YFL016C
0.3: yeast gene YKR053C
0.6: yeast gene YBR054W | yeast gene YDR258C | yeast gene YHL028W | yeast gene YOR009W | yeast gene YOR010C
3.3: yeast gene YBR067C
